Experimental data as given in patent US7220768B2, “Isoxazole-containing thiourea inhibitors useful for treatment of varicella zoster virus” (Wyeth Holdings Corp., priority 2003, dated 2007).
≈ marks a conversion by molar mass, not a printed value.

Assays:
VZV = VZV antiviral assay (Table 2); format: cell-based, varicella zoster virus; conditions: for IC50: Human alphaherpesvirus 3
MTS assay (Table 2) = format: cell-based
HCMV = experiment: Human cytomegalovirus yield / microtiter plate assay; format: cell-based; conditions: human foreskin fibroblasts; for IC50: Human betaherpesvirus 5, Fibroblast
Procedure: Yield Assay. Monolayer cultures of human foreskin fibroblasts are infected with HCMV wild-type virus, typically at a multiplicity of infection equal to 0.2, in the presence of inhibitors compound (varying concentrations). At three days post-infection, total virus produced in these cultures (i.e. virus yield) is assessed by harvesting and titering the virus in 12-well plates of cultured human foreskin fibroblasts (done in the absence of inhibitors). Plaques are quantified at 2 weeks post-infection. An inhibitor of HCMV is identified by the reduction in titer of virus yield in the presence, compared to the titer in the absence of compound. In this assay, the relative anti-HCMV activity of an inhibitor is typically determined by calculating the IC50 or IC90 value, that is, the amount of compound required to reduce the virus yield by 50% or 90%, respectively. Table 2 describes IC50 data for compounds tested against HCMV.
Microtiter Plate Assay. Ninety-six well plate cultures of human foreskin fibroblasts are infected in the presence of inhibitor compound with a HCMV recombinant mutant virus whose genome contains the prokaryotic beta-glucuronidase gene (Jefferson, R. A., S. M. Burgess, and D. Hirsh. 1986. Beta-glucuronidase from Escherichia coli as a gene fusion marker. Proc. Natl. Acad. Sci. USA 83:8447–8451) whose expression is controlled by a viral promoter. An example of such a virus is RV145 [T. R. Jones; V. P. Muzithras, and Y. Gluzman. 1991, Replacement mutagenesis of the human cytomegalovirus genome: US10 and US11 gene products are nonessential, J. Virol. 65:5860–5872]. Since it is under the control of a viral promoter, beta-glucuronidase expression is an indirect indicator of growth and replication of HCMV in this assay. At 96 hours post-infection, the infected cell lysates are prepared (using 50 mM sodium phosphate [pH 7.0] containing 0.1% Triton X-100 and 0.1% sarkosyl) and assayed for beta-glucuronidase activity using a substrate for the enzyme which when cleaved yields either a product which can be measured colorimetrically in a spectrophotometer or fluorescently in a microfluorimeter. Examples of such substrates are p-nitrophenyl-beta-D-glucuronide and methylumbelliferylglucuronide, respectively. The presence of an antiviral compound is indicated by the reduced expression of the HCMV genome resident beta-glucuronidase gene, compared to the absence of inhibitor. […] Data from this assay generated using varying amounts of inhibitor compound is also used to estimate the IC50 of an inhibitor compound.

HSV = HSV Antiviral (ELISA) Assay; format: cell-based, herpes simplex virus; conditions: Vero cells
Procedure: HSV Antiviral (ELISA) Assay. Vero cells (ATCC #CCL-81) are plated on 96-well tissue culture plates at 3.5×10^4 cells per 100 μl tissue culture DMEM (Dulbecco's modified Eagle media) supplemented with 2% fetal bovine serum (FBS) in each well. After overnight incubation, inhibition was determined by comparing the fluorescence obtained in absence of compound to that obtained in the presence of compound.

RSV = RSV antiviral assay (Table 2); format: cell-based; conditions: for IC50: human respiratory syncytial virus

Structure (SMILES) | IC50 (VZV) [mg/L] | IC50 (MTS assay (Table 2)) [mg/L] | IC50 (HCMV) [mg/L] | IC50 (HSV) [mg/L] | IC50 (RSV) [mg/L] | IC50 VZV (VZV) [mg/L] | IC50 MTS (MTS assay (Table 2)) [mg/L] | IC50 CMV (HCMV) [mg/L] | IC50 HSV (HSV) [mg/L] | IC50 RSV (RSV) [mg/L]
CC(NC(=S)Nc1ccc(-c2nocc2CO)cc1)c1ccc(F)cc1 (stereo not shown) [Example 9, 1-[1-(4-Fluorophenyl)ethyl]-3-[4-(4-hydroxymethylisoxazol-3-yl)phenyl]thiourea] | 2 (≈ 5.38 µM) | > 15 | 5.7 (≈ 15.3 µM) | > 10 | 7.2 (≈ 19.4 µM) |  |  |  |  | 
CC(NC(=S)Nc1ccc(-c2nocc2Cc2ccccc2)cc1)c1ccc(F)cc1 (stereo not shown) [Example 10, 1-[4-(4-Benzylisoxazol-3-yl)phenyl]-3-[1-(4-fluorophenyl)ethyl]thiourea] | 0.086 (≈ 0.199 µM) | > 15 | 2.4 (≈ 5.56 µM) | > 10 | > 10 |  |  |  |  | 
CC(NC(=S)Nc1ccc(-c2nocc2Cc2ccc(F)cc2)cc1)c1ccc(F)cc1 (stereo not shown) [Example 11, 1-{4-[4-(4-Fluorobenzyl)isoxazol-3-yl]phenyl}-3-[1-(4-fluorophenyl)ethyl]thiourea] | 0.16 (≈ 0.356 µM) | 1.9 (≈ 4.23 µM) | 1.8 (≈ 4 µM) | 2.1 (≈ 4.67 µM) | 4.7 (≈ 10.5 µM) |  |  |  |  | 
CC(NC(=S)Nc1ccc(-c2nocc2-c2ccccc2)cc1)c1ccc(F)cc1 (stereo not shown) [Example 12, 1-[1-(4-Fluoropheny)ethyl]-3-[4-(4-phenylisoxazol-3-yl)phenyl]thiourea] |  |  |  |  |  | 0.37 (≈ 0.886 µM) | >15 | >10 | >10 | >10
CC(NC(=S)Nc1ccc(-c2nocc2C(C)(C)C)cc1)c1ccc(F)cc1 (stereo not shown) [Example 13, 1-[4-(4-tert-Butylisoxazol-3-yl)phenyl]-3-[1-(4-fluorophenyl)ethyl]thiourea] | 0.23 (≈ 0.579 µM) | 1.5 (≈ 3.77 µM) | 1.3 (≈ 3.27 µM) | 2.3 (≈ 5.79 µM) | 2.1 (≈ 5.28 µM) |  |  |  |  | 
CC(NC(=S)Nc1ccc(-c2nocc2-c2ccccc2F)cc1)c1ccc(F)cc1 (stereo not shown) [Example 14, 1-[1-(4-Fluorophenyl)ethyl]-3-{4-[4-(2-fluorophenyl)isoxazol-3-yl]phenyl}thiourea] | 5.4 (≈ 12.4 µM) | > 15 | > 10 | > 10 | > 10 |  |  |  |  | 
CC(NC(=S)Nc1ccc(-c2conc2-c2cccnc2)cc1)c1ccc(F)cc1 (stereo not shown) [Example 15, N-[1-(4-Fluorophenyl)ethyl]-N′-{4-[3-(3-pyridinyl)-4-isoxazolyl]phenyl}thiourea] | 0.19 (≈ 0.454 µM) | 14 (≈ 33.5 µM) | > 10 | 3.1 (≈ 7.41 µM) | > 10 |  |  |  |  | 
CC(NC(=S)Nc1ccc(-c2conc2-c2ccnc3ccccc23)cc1)c1ccc(F)cc1 (stereo not shown) [Example 16, N-[1-(4-Fluorophenyl)ethyl]-N′-{4-[3-(4-quinolinyl)-4-isoxazolyl]phenyl}thiourea] | 0.08 (≈ 0.171 µM) | 6.5 (≈ 13.9 µM) | 0.8 (≈ 1.71 µM) | 3.1 (≈ 6.62 µM) | 2.3 (≈ 4.91 µM) |  |  |  |  | 
CC(NC(=S)Nc1ccc(-c2conc2-c2ccncc2)cc1)c1ccc(F)cc1 (stereo not shown) [Example 17, N-[1-(4-Fluorophenyl)ethyl]-N′-{4-[3-(4-pyridinyl)-4-isoxazolyl]phenyl}thiourea] | 0.14 (≈ 0.335 µM) | 5.5 (≈ 13.1 µM) | 0.93 (≈ 2.22 µM) | 3.7 (≈ 8.84 µM) | 1.5 (≈ 3.58 µM) |  |  |  |  | 
CC(NC(=S)Nc1ccc(-c2conc2-c2ccc(N)cc2)cc1)c1ccc(F)cc1 (stereo not shown) [Example 18, N-{4-[3-(4-Aminophenyl)-4-isoxazolyl]phenyl}-N′-[1-(4-fluorophenyl)ethyl]thiourea] | 0.05 (≈ 0.116 µM) | 13 (≈ 30.1 µM) | 2 (≈ 4.62 µM) | > 10 | > 10 |  |  |  |  | 
CC(NC(=S)Nc1ccc(-c2conc2-c2csnn2)cc1)c1ccc(F)cc1 (stereo not shown) [Example 19, N-[1-(4-Fluorophenyl)ethyl]-N′-{4-[3-(1,2,3-thiadiazol-4-yl)-4-isoxazolyl]phenyl}thiourea] | 0.13 (≈ 0.306 µM) | > 15 | 0.9 (≈ 2.12 µM) | > 10 | > 10 |  |  |  |  | 
CC(NC(=S)Nc1ccc(-c2conc2-c2ccccn2)cc1)c1ccc(F)cc1 (stereo not shown) [Example 20, N-[1-(4-Fluorophenyl)ethyl]-N′-{4-[3-(2-pyridinyl)-4-isoxazolyl]phenyl}thiourea] | 0.18 (≈ 0.43 µM) | > 15 | > 10 | > 10 | > 10 |  |  |  |  | 
CC(NC(=S)Nc1ccc(-c2conc2-c2ccc(N(C)C)cc2)cc1)c1ccc(F)cc1 (stereo not shown) [Example 21, N-(4-{3-[4-(Dimethylamino)phenyl]-4-isoxazolyl}phenyl)-N′-[1-(4-fluorophenyl)ethyl]thiourea] | 0.34 (≈ 0.738 µM) | > 15 | 9.3 (≈ 20.2 µM) | > 10 | > 10 |  |  |  |  | 
CC(NC(=S)Nc1ccc(-c2conc2-c2ccc(O)cc2)cc1)c1ccc(F)cc1 (stereo not shown) [Example 22, N-[1-(4-Fluorophenyl)ethyl]-N′-{4-[3-(4-hydroxyphenyl)-4-isoxazolyl]phenyl}thiourea] | 0.61 (≈ 1.41 µM) | > 15 | 2.5 (≈ 5.77 µM) | > 10 | 9.9 (≈ 22.8 µM) |  |  |  |  | 
CC(NC(=S)Nc1ccc(-c2conc2-c2ccccc2)cc1)c1ccc(F)cc1 (stereo not shown) [Example 23, N-[1-(4-Fluorophenyl)ethyl]-N′-[4-(3-phenyl-4-isoxazolyl)phenyl]thiourea] | 0.89 (≈ 2.13 µM) | > 15 | > 10 | > 10 | > 10 |  |  |  |  | 
CC(NC(=S)Nc1ccc(-c2conc2-c2ncc[nH]2)cc1)c1ccc(F)cc1 (stereo not shown) [Example 24, N-[1-(4-Fluorophenyl)ethyl]-N′-{4-[3-(1 H-imidazol-2-yl)-4-isoxazolyl]phenyl}thiourea] | 1 (≈ 2.45 µM) | > 15 | > 10 | > 10 | > 10 |  |  |  |  | 
CC(NC(=S)Nc1ccc(-c2conc2-c2ccccc2O)cc1)c1ccc(F)cc1 (stereo not shown) [Example 25, N-[1-(4-Fluorophenyl)ethyl]-N′-{4-[3-(2-hydroxyphenyl)-4-isoxazolyl]phenyl}thiourea] | 1.9 (≈ 4.38 µM) | > 15 | 7.9 (≈ 18.2 µM) | > 10 | > 10 |  |  |  |  | 
